From US20230094545A1, “S1P RECEPTOR MODULATORS” (AKAAL PHARMA PTY LTD, priority 2020, published 2023)
Several values for one entry are separate records, joined by “and”; a condition that tells them apart may be missing. Identical values can stand only once. Entries after “also recorded” stand apart in the source; their conditions may differ.

How the values were obtained:
[1] = 8 mg daily oral dosing for 7 days in healthy human subjects: systemic exposure, lymphocyte counts; assay type: in vivo
Procedure: One cohort (8 human subjects) was treated daily with 8 mg oral dosing for 7 consecutive days.

CFA mediated pain = assay: CFA (Freund's adjuvant) mediated pain, topical treatment; assay type: in vivo, Sprague Dawley Rats
Description: The total 24 female Sprague Dawley Rats were assigned to two test and two control groups having 6 animals per group. Animals from G1 and G2 received CFA on Day 1 by intraplanter route followed application of test item (0 and 3% respectively), onto injection site from Day 1 to Day 7. Group G3 and G4 animals received deep incision through the skin and fascia of the plantar foot followed by application of test item (0 and 3% respectively), onto the incision site from Day 1 to Day 7. Clinical signs, body weight and pain assessment parameters like Von Frey estimation and FOB was evaluated and the pain reduction results at Day 7 are summarized in Table 7.

[2] = tested on: paclitaxel induced neuropathic pain; assay: Paclitaxel induced neuropathic pain; assay type: in vivo, Sprague Dawley Rats
Procedure: Forty-eight male Sprague Dawley Rats were assigned to different treatment and control groups containing 8 animals per group. All animals, except the Naive control were injected with Paclitaxel (2 mg/kg) intraperitoneally on four alternate days (D0, D2, D4 and D6). For prophylactic intervention, the compound of Formula I was dosed orally at dose of 0.3, 1 and 3 mg/kg/day when the treatment was initiated along with paclitaxel treatment and the dosage was continued until day 15 post first paclitaxel injection. For therapeutic intervention, the compound of Formula I was dosed orally at dose of 3 mg/kg/day when the treatment was initiated after establishment of neuropathic pain i.e. on day 16 post first paclitaxel injection and was continued for the next 7 days.
For behavioural testing each rat was allowed to acclimatize individually to a transparent enclosure on elevated wire mesh for at least 15 min. Behavioural testing was performed using an Electronic von Frey Aesthesiometer (IITC Life Science) to evaluate paw withdrawal threshold to mechanical stimulus.
Based on these findings it can be concluded that treatment with the compound of formula (I) is effective both as a prophylactic and therapeutic and has an anti-allodynic effect in paclitaxel induced neuropathic pain.

EAE = assay: Animal model of multiple sclerosis (EAE induced with guinea pig MBP); assay type: in vivo, Lewis rats; conditions: EAE rats, oral every day until day 26
Procedure: The oral treatment with a compound of formula (I) was conducted in an animal model of multiple sclerosis. EAE was induced in female Lewis rats with guinea pig MBP (25 μg/rat).

DSS-induced colitis = assay: DSS-induced ulcerative colitis model; assay type: in vivo, Balb/C Mice
Procedure: The effect of a compound of formula (I) was assessed in an animal model of Ulcerative colitis. 24 Balb/C Mice were divided into […]; control and treatment (n=6). Acute colitis was induced in all groups by adding 2.5% w/v Dextran Sulphate Sodium (DSS) treatment in drinking water for 5-7 days. A compound of Formula I was administered at dose of 3 mg/kg body weight by oral route as a repeated dose for 3 or 6 days, consecutively. […] During day 6 these observations were reduced to 16.66% in control and 0.00% in a compound of Formula I group.
The mean colon lengths were 9.67 cm, 9.88 cm, 11.20 cm and 13.02 cm in day 3 control group, day 6 control group, day 3 a compound of Formula I treated group and day 6 a compound of Formula I treated group respectively. […] The severity of presence of haemorrhages with desquamated cells seen in lumen of colon of control animals was reduced in a compound of Formula (I) treated animals.

[3] = tested on: LPS mediated systemic inflammation; assay: LPS-induced sepsis model; assay type: in vivo, Sprague-Dawley rats; conditions: 3 mg/Kg oral 1 h after LPS and every 24 h
Procedure: Sepsis was induced in female Sprague-Dawley rats by LPS (5 mg/kg) administration and treated orally with compound of Formula I (3 mg/Kg) 1 h after and every 24 h thereafter to determine the effect of a compound of formula (I) in this animal model of sepsis (LPS mediated systemic inflammation). Animals were sacrificed at 24 and 72h post LPS treatment.

excision wound = assay: Animal model of excision wound; assay type: in vivo, Wistar rats; conditions: 3% w/w ointment, 0.20 g/animal wound, topically twice daily
Procedure: Two groups with six Wistar rats in each group were anaesthetized with a dose of 80 mg/kg of ketamine (i.p.) and the back of the animals were shaved. One excision wound was inflicted by cutting away (with a sterile scalpel) a 600-700 mm^2 section of the full thickness of the skin from a predetermined area. The wound was left undressed to the open environment. Group 1 rats were untreated and served as sham control. Group 2 animals were treated with a compound of Formula I in an ointment formulation (3% w/w). The ointment (0.20 g/animal wound) was applied topically twice daily.

psoriasis = assay: Topical treatment of psoriasis patients; assay type: in vivo, human
Procedure: (§1) Twelve psoriasis patients were treated with the compound of Formula I@30 mg daily dosing under occlusion as topical treatment for 28 consecutive days. […] The systemic exposure after topical applications was recorded below the limit of quantification (BLQ) <0.400 ng/mL.

[4] = Topical treatment of psoriasis patients; assay type: in vivo, human; conditions: human, in vivo, 30 mg daily; after topical applications, below the limit of quantification; read-out: systemic exposure
Procedure: as §1

mould = assay: Anti-mould (antifungal) activity on wheat flour bread; conditions: 1% ww and 3% ww water solution on bread, day 14, room temperature
Procedure: The compound of formula I solution as 0% ww, 1% ww and 3% ww as I mL water solution was added to a glass jar (5 mL) containing the fresh wheat flour bread (1 gm). The content was mixed well in order to wet the bread with solution. The content was kept in open glass cylinder for 14 days at room temperature and light (normal conditions) and the photos of Day 1 and Day 14 were taken (FIGS. 5A and B respectively). […] The mould is common in many skin indications and other human, animal and plant diseases. For example, Rhizopus stolonifera.

[5] = individual healthy human subjects, 8 mg oral daily for 7 days, listed as compound of formula (1)

CCCOc1ccc(-c2nc(-c3ccc4oc(C(N)(CO)CO)cc4c3)no2)cc1Cl [compound of formula (I)]
bradycardia and lymphopenia ([1]; 2 g daily topical 3% ww for 3 weeks and oral 8 mg daily for one week): without event of bradycardia and significant lymphopenia
concentration at 7 days ([1]; human, in vivo, po, 8 mg daily, humans, 8 mg oral daily for 7 days): ~53 ng/mL
measured lymphopenia ([1]; humans, 8 mg daily dosing for one week): up to 40%
lymphopenia ([1]; humans, 8 mg oral daily for 7 consecutive days): mild lymphopenia
systemic exposure (mean / average) ([1]; humans, 8 mg oral daily for 7 days): 53.3 ng/mL
ALC Change (%) [1, 5]: −33.33% and −27.66% and −35.71% and 0% and +40% and −22.58% and −15.56% and −20%
CD3 Change (%) [1, 5]: −18.75% and −30.32% and −30.58% and −0.6% and −12.58% and −5.77% and −12.36% and −11.86%
CD4 Change (%) [1, 5]: −22.41% and −33.62% and −32% and −5.2% and −10.91% and −8.21% and −25.3% and −7.87%
CD8 Change (%) [1, 5]: −19.05% and −27.87% and −31.74% and −1.67% and −13.79% and 0% and −7.06% and −11.86%
Pain reduction results at Day 7, CFA mediated pain (CFA mediated pain; 3% (G2), Placebo (G1) 0.17): 0.00
pain relief (CFA mediated pain; 3% topical Day 1 to Day 7, day 7): complete pain relief
neuropathic pain, therapeutic treatment ([2]; 3 mg/kg/day oral after establishment of pain, maximum effect after 5th daily dose): reversal of neuropathic pain in time dependent manner
development of neuropathic pain, prophylactic treatment ([2]; 0.3, 1 and 3 mg/kg/day oral, maximum effect at 3 mg/kg/day): inhibited the development of paclitaxel induced neuropathic pain dose dependently
reduction of day 16 score ([2]; preventive model, 1 and 3 mg/kg dose levels, p<0.001): > 60%
anti-allodynic effect after withdrawal of treatment on day 15 ([2]; until 7 days post last drug treatment (day 22)): did not cause any reversal of the drug's anti-allodynic effect
lymphopenia (EAE): lymphopenia was less; also recorded: short-term and quickly reversed
DSS-induced colitis, overall (DSS-induced colitis; 3 mg/kg oral daily): improvement of DSS-induced colitis
mean colon length (DSS-induced colitis; day 3, 3 mg/kg oral): 11.20 cm
gross pathological observations (emaciated, anal area soiled with blood) (DSS-induced colitis; day 6, 3 mg/kg oral): 0.00%
mean colon length (DSS-induced colitis; day 6, 3 mg/kg oral): 13.02 cm
increase in mucus secreting goblet cells (DSS-induced colitis; histopathology day 6): moderate ( 4/6 animals) to minimal (⅙ animals) increase
infiltration of MNC (DSS-induced colitis; histopathology day 6): minimal in 2/6 animals and mild in ⅙ animals
thickness of mucosa (DSS-induced colitis; histopathology day 6, compared to control): markedly reduced
incidence of increase in thickness of mucosa (DSS-induced colitis; histopathology of colon): mild in 3/6 animals and minimal in 2/6 animals
number of mucus secreting goblet cells (DSS-induced colitis; histopathology of colon): increased moderately ( 4/6)
severity of haemorrhages with desquamated cells in lumen of colon (DSS-induced colitis; histopathology of colon): reduced
body temperature and organ histopathology [3]: positive impact on the body temperature and organ histopathology
wound healing (excision wound): did not inhibit or impair the wound healing
absolute lymphocyte count (psoriasis; 30 mg daily topical, 28 days): no systemic change in the absolute lymphocyte count
tolerability (psoriasis; 30 mg daily topical, 28 days): well tolerated
local psoriasis severity index (LPSI) score (psoriasis; day 28, from 5.8 (day 1), 30 mg daily topical under occlusion, p<0.0016): −2.1
plaque area (psoriasis; some subjects, image analysis): reduction in plaque area
concentration at 28 days [4]: < 0.4 ng/mL
mould growth (mould): preventing mould growth at day 14
